According to patent US12686668B2, “Leukotriene synthesis inhibitors” (Naegis Pharmaceuticals Inc., priority 2019, dated 2026):
Where two headings read alike, the source gives them in different places.

Key:
[1] = system: LTC4 production in MC/9 cells; assay: MC/9 HPLC assay, inhibition of LTC4 production; type: cell-based; conditions: Mus musculus; for inhibition at 3 µM: MC9, 3 μM, A23187 stimulated
Method in brief: (§1)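 MC/9 cells (3×10^6 in HBSS) pre-incubated 30 min with compound, then stimulated 20 min at room temperature with 1 μM A23187. After methanol quench and C18 solid-phase extraction, LTB4 and LTC4 quantified by HPLC against reference standards; inhibition relative to control samples.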

[2] = system: LTB4 production in MC/9 cells; assay: MC/9 HPLC assay, inhibition of LTB4 production; type: cell-based; conditions: Mus musculus
Method in brief: as §1

[3] = target: T1, recombinant human leukotriene A4 hydrolase enzyme (Homo sapiens, UniProt P09960); assay: Amino-peptidase assay, alanine-4-nitroanalide; type: biochemical; conditions: negative values = augmented peptidase activity, read-out: % Inhibition aminopeptidase-Alanine-4-nitroanalide activity of LTA4H (3 μM)
T1 construct: purchased Cayman Chemical 10007817
T1 sequence (P09960 1-611): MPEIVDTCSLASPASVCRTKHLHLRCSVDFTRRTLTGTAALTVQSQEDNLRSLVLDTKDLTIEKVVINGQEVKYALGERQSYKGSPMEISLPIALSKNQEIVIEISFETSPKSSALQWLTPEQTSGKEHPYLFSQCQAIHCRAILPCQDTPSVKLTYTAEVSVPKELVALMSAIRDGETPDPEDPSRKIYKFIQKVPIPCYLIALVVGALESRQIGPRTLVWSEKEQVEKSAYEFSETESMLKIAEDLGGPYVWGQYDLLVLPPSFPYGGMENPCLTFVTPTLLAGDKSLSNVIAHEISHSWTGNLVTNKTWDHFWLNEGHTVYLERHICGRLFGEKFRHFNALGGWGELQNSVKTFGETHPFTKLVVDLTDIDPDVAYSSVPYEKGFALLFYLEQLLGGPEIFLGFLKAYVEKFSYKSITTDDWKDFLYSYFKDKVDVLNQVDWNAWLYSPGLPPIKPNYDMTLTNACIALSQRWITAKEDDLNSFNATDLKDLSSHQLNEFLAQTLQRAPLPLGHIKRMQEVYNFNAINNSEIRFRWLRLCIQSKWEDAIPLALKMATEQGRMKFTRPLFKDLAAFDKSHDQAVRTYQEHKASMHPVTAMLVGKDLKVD
Protocol: A series of compound concentrations were pre-incubated in the absence of light with 0.5 μg of recombinant human leukotriene A4 hydrolase enzyme (Cayman Chemical 10007817) in 50 μL assay buffer (50 mM Tris-HCl, 100 mM KCl). The reaction was stimulated by adding 50 μL 6 mM alanine-4-nitroanilide (Sigma Aldrich A9325) in assay buffer. The amount of amino-peptidase activity was measured by determining the change in absorbance at 405 nm due to 4-nitroanaline production and comparing the rate of change to a reference standard (Sigma Aldrich 185310). Amino-peptidase activity was compared to control samples and the level of inhibition was calculated. Compounds that augment peptidase activity are represented by negative values.

[4] = system: LTB4 production in porcine or human whole blood; assay: Whole blood HPLC assay, inhibition of LTB4 production; type: cell-based; conditions: 5 point curve, porcine or human whole blood (not specified)
Protocol: Porcine or human whole blood (1 mL) was pre-incubated with a series of concentrations of compound solubilized in DMSO for 30 minutes. Production of leukotrienes were stimulated with the addition of 20 μM calcium ionophore (A23187), diluted from a 4 mM DMSO stock in HBSS, and incubated at room temperature for 20 minutes. In porcine blood 20 μM arachidonic acid was added in addition to the calcium ionophore. The blood was centrifuged at 2,000 rpm for 15 minutes, and the plasma fraction removed for further processing. Plasma samples were diluted with 500 μL acidified water (HCl pH 3.0) and loaded onto C18 SEP-PAK columns (Canadian Lifesciences IS12000) for solid phase extraction. The leukotrienes were analyzed by HPLC using an ACE C18 column (4.5 mm×150 mm, 5 m) eluted with acetonitrile/methanol/water mixture with H3PO4, pH 3.5 (37:26:37) with a flow rate of 1.8 mL/min. The amount of LTB4 (Cayman Chemical, 20110) was calculated based on reference standards and the level of inhibition of LTB4 production induced by the test compounds was calculated relative to control samples. The results provided in Table 3 are IC50 values calculated based on a 5 point curve, where Compound No. refers to the compounds identified in Table 1.

[5] = target: T1, recombinant human leukotriene A4 hydrolase enzyme; assay: Amino-peptidase assay, PGP; type: biochemical; conditions: concentration not given
Protocol: A series of compound concentrations were pre-incubated with 50 ng of recombinant human leukotriene A4 hydrolase enzyme (Cayman Chemical, 10007817) in 50 L assay buffer (50 mM Tris-HCl, 100 mM KCl). The reaction was stimulated by adding 50 L 1 mM proline-glycine-proline (Bachem, H-7284) and incubated for 30 minutes at 37° C. The reaction was stopped with the addition of 150 μL of glacial acetic acid. The amount of free proline released from the peptide was detected through a reaction with ninhydrin. 150 μL of 25 mg/mL ninhydrin (BDH, B10132) in 60:40 acetic acid/water was added to each sample, and boiled for 30 minutes at 100° C. and once samples had cooled to room temperature, 350 μL of toluene was added to extract the ninhydrin reaction product. The amount of free proline was determined by comparing the absorbance at 520 nm to the L-proline (Sigma Aldrich, 81709) reference standard. Inhibition of free proline production was calculated based on control samples.

[6] = MC9, Table 2 column 3, no concentration in head (1 μM according to b732), read-out: % Inhibition LTC4
[7] = MC9, Table 2 column 4, no concentration in head (1 μM according to b732), read-out: % Inhibition LTB4

Row | SMILES | inhibition at 3 µM [1] | inhibition at 1 µM [1, 6] | inhibition at 1 µM [2, 7] | inhibition at 3 µM [3] | IC50 [4] | % Inhibition aminopeptidase-PGP activity of LTA4H [5] | inhibition at 1 µM ([1]; MC9, 1 μM, read-out: % inhibition LTC4 (1 μM)) | inhibition at 1 µM ([2]; MC9, 1 μM, read-out: % inhibition LTB4 (1 μM))
1 | OC(c1ccc(Oc2nc3ccccc3s2)c(Cl)c1)C(F)(F)F (stereo not shown) [Compound 167, 1-[4-(1,3-benzothiazol-2-yloxy)-3-chlorophenyl]-2,2,2-trifluoroethanol] | 10 to 30% | 10 to 30% | 10 to 30% | > 75% | > 10 µM | – | – | –
2 | CCC(=O)CCc1ccc(Oc2nc3ccccc3s2)c(OC(C)C)c1 [Compound 112, 1-[4-(1,3-benzothiazol-2-yloxy)-3-(iso-propyloxy)-phenyl]pentan-3-one] | – | – | – | – | – | <25% | – | –
3 | CCC(CCc1ccc(Oc2nc3ccccc3s2)c(OC)c1)N1CCN(C)CC1 (stereo not shown) [Compound 188, 1-[4-(1,3-benzothiazol-2-yloxy)-3-methoxyphenyl]-3-(4-methylpiperazinyl-1yl)pentane] | 10 to 30% | – | – | < 25% | – | 25-50% | – | –
4 | CC(CCc1ccc(OCc2ccc3ccccc3n2)cc1)N1CCCC1 (stereo not shown) [Compound 190] | 30 to 50% | – | – | < 25% | – | 25-50% | – | –
5 | CC(O)(CCc1ccc(Oc2nc3ccccc3o2)cc1)c1ccccc1 (stereo not shown) [Compound 147, 4-[4-(1,3-benzoxazol-2-yloxy)phenyl]-2-phenylbutan-2-ol] | – | 30 to 50% | > 90% | 50 to 75% | – | 25-50% | – | –
6 | CCC(O)CCc1ccc(Oc2nc3ccccc3s2)c(OCC2CC2)c1 (stereo not shown) [Compound 187, 1-[4-(1,3-benzothiazol-2-yloxy)-3-(cyclopropylmethoxy)-phenyl]-pentan-3-ol] | 50 to 70% | – | – | > 75% | – | 50-75% | – | –
7 | OC(c1ccc(Oc2nc3ccccc3s2)cc1)C(F)(F)F (stereo not shown) [Compound 166, 1-[4-(1,3-benzothiazol-2-yloxy)phenyl]-2,2,2-trifluoroethanol] | 30 to 50% | – | – | < 25% | 0.1 to 1 µM | – | – | –
8 | CNC(c1ccc(Oc2nc3ccccc3s2)cc1)C(F)(F)F (stereo not shown) [Compound 178, 1-[4-(1,3-benzothiazol-2-yloxy)phenyl]-2,2,2-trifluoro-N-methylethanamine] | < 10% | – | – | 70 to 90% | – | 70-90% | – | –
9 | CC(O)(c1ccc(Oc2nc3c(F)cc(F)cc3s2)cc1)C(F)(F)F (stereo not shown) [Compound 181, 2-{4-[(4,6-difluoro-1,3-benzothiazol-2-yl)oxy]phenyl}-1,1,1-trifluoropropan-2-ol] | < 10% | – | – | 0 to 50% | – | >75% | – | –
10 | OC(c1ccc(Oc2nc3c(F)cc(F)cc3s2)cc1)C(F)(F)F (stereo not shown) [Compound 179, 1-{4-[(4,6-difluoro-1,3-benzothiazol-2-yl)oxy]phenyl}-2,2,2-trifluoroethanol] | 10 to 30% | – | – | > 75% | – | >75% | – | –
11 | COc1cc(CCC(C)(O)C(F)(F)F)ccc1OCc1ccc2ccccc2n1 (stereo not shown) [Compound 184, 1,1,1-trifluoro-4-[3-methoxy-4-(quinolin-2-ylmethoxy)phenyl]-2-methylbutan-2-ol] | – | – | – | < 25% | 0.1 to 1 µM | 25-50% | – | –
12 | CCC(O)(CCc1ccc(Oc2nc3ccccc3s2)cc1)C(F)(F)F (stereo not shown) [Compound 150, 1-[4-(1,3-benzothiazol-2-yloxy)phenyl]-3-(trifluoromethyl)pentan-3-ol] | 70 to 90% | 10 to 30% | 50 to 70% | 25 to 50% | 1 to 10 µM | <25% | 10 to 30% | 50 to 70%
13 | CCC(=O)CCc1ccc(Oc2nc3ccccc3s2)c(Cl)c1 [Compound 149, 1-[4-(1,3-benzothiazol-2-yloxy)-3-chlorophenyl]pentan-3-one] | – | 30 to 50% | 50 to 70% | < 25% | – | 25-50% | – | –
14 | c1ccc2sc(Oc3ccc(CN4CCCC4)cc3)nc2c1 [Compound 164, 2-[4-(pyrrolidin-1-ylmethyl)phenoxy]-1,3-benzothiazole] | < 10% | – | – | > 75% | 0.1 to 1 µM | – | – | –
15 | CCC(C)(O)CCc1ccc(Oc2nc3ccccc3o2)cc1 (stereo not shown) [Compound 146, 1-[4-(1,3-benzoxazol-2-yloxy)phenyl]-3-methylpentan-3-ol] | – | 10 to 30% | > 90% | < 25% | 1 to 10 µM | – | – | –
16 | CCC(=O)CCc1ccc(Oc2nc3ccccc3s2)c(F)c1 [Compound 152, 1-[4-(1,3-benzothiazol-2-yloxy)-3-fluorophenyl]-pentan-3-one] | 30 to 50% | 30 to 50% | 50 to 70% | < 25% | – | 25-50% | – | –
17 | CCC(O)CCc1ccc(Oc2nc3ccccc3s2)c(OC2CCCC2)c1 (stereo not shown) [Compound 186, 1-[4-(1,3-benzothiazol-2-yloxy)-3-(cyclopentyloxy)-phenyl]pentan-3-ol] | 70 to 90% | – | – | > 75% | – | >75% | – | –
